In brackets after ≈: the same amount, converted by molar mass.
Tests used:
Experiment in all cases: minimum inhibitory concentration, agar dilution assay
Type in all cases: cell-based
Alcaligenes faecalis A 1 = details: A1, agar dilution, 35° C., 20 hours, read-out: minimum inhibitory concentration
Protocol: (§1) The antibiotic activities shown in Tables I-1 to I-8 above were determined in the following manner.
(§2) The minimum inhibitory concentrations of the compounds of formula (I-a-1) or (I-b-1) in Tables I-1 to I-7 and the known compounds in Table I-8 on the various microorganisms shown in the above tables were measured by an agar dilution assay method using a brain heart infusion agar medium "Difco" (a product of Difco Laboratories Inc.)
(§3) A sample of the test compound was dissolved in sterile distilled water and diluted to prepare a two-fold dilution series of the compound solution. In a petri plate of 9 cm diameter, 1 ml of the compound solution was added to 9 ml of molten sterile heart infusion agar medium (Difco Laboratories Inc.) at about 60° C. to prepare the compound-containing agar plate. An overnight culture of each test organism indicated in the above table which was prepared by stationary cultivation in Trypto-Soy broth (Eiken Chemi. Co., Ltd.) at 35° C. for 18 to 20 hours, was diluted with the Trypto-Soy broth to give approximately 10^8 cells/ml and the diluted inoculum was inoculated onto the compound-containing agar plates. After cultivating the plates at 35° C. for 20 hours, the growth of the organism was observed. The minimum concentration of the compound at which no growth of the microorganism was noted was determined, and defined as the minimum inhibitory concentration of the test compound.

[1] = test system: Bacillus subtilis ATCC 6633; details: ATCC6633, agar dilution, 35° C., 20 hours, read-out: minimum inhibitory concentration
Protocol: as §1, §2, §3

[2] = test system: Citrobacter freundii GN 346; details: GN346, agar dilution, 35° C., 20 hours, read-out: minimum inhibitory concentration
Protocol: as §1, §2, §3

[3] = test system: Comamonas terrigena B-996; details: B996, agar dilution, 35° C., 20 hours, read-out: minimum inhibitory concentration
Protocol: as §1, §2, §3

[4] = test system: Enterobacter aerogenes E19; details: Klebsiella aerogenes, E19; agar dilution, 35° C., 20 hours; read-out: minimum inhibitory concentration
Protocol: as §1, §2, §3

Enterobacter cloacae 45 = details: Enterobacter cloacae, 45; agar dilution, 35° C., 20 hours; read-out: minimum inhibitory concentration
Protocol: as §1, §2, §3

Enterobacter sp. E8 = details: SP.E8, agar dilution, 35° C., 20 hours, read-out: minimum inhibitory concentration
Protocol: as §1, §2, §3

Escherichia coli K-12 = details: K12, agar dilution, 35° C., 20 hours, read-out: minimum inhibitory concentration
Protocol: as §1, §2, §3

Escherichia coli RGN 823 = details: RGN823, agar dilution, 35° C., 20 hours, read-out: minimum inhibitory concentration
Protocol: as §1, §2, §3

[5] = test system: Klebsiella pneumoniae K-13; details: K13, agar dilution, 35° C., 20 hours, read-out: minimum inhibitory concentration
Protocol: as §1, §2, §3

Proteus mirabilis P6 = details: P6, agar dilution, 35° C., 20 hours, read-out: minimum inhibitory concentration
Protocol: as §1, §2, §3

Proteus rettgeri P7 = details: Providencia rettgeri, P7; agar dilution, 35° C., 20 hours; read-out: minimum inhibitory concentration
Protocol: as §1, §2, §3

Proteus sp. P22 = details: agar dilution, 35° C., 20 hours; read-out: minimum inhibitory concentration
Protocol: as §1, §2, §3

Proteus vulgaris GN76 = details: GN76, agar dilution, 35° C., 20 hours, read-out: minimum inhibitory concentration
Protocol: as §1, §2, §3

Providencia sp. P8 = details: SP.P8, agar dilution, 35° C., 20 hours, read-out: minimum inhibitory concentration
Protocol: as §1, §2, §3

[6] = test system: Pseudomonas aeruginosa IFO3445; details: IFO3445, agar dilution, 35° C., 20 hours, read-out: minimum inhibitory concentration
Protocol: as §1, §2, §3

[7] = test system: Pseudomonas aeruginosa NCTC10490; details: NCTC10490, agar dilution, 35° C., 20 hours, read-out: minimum inhibitory concentration
Protocol: as §1, §2, §3

Sarcina lutea = details: Micrococcus luteus; agar dilution, 35° C., 20 hours; read-out: minimum inhibitory concentration
Protocol: as §1, §2, §3

Serratia marcescens S18 = details: S18, agar dilution, 35° C., 20 hours, read-out: minimum inhibitory concentration
Protocol: as §1, §2, §3

Serratia marcescens T55 = details: T55, agar dilution, 35° C., 20 hours, read-out: minimum inhibitory concentration
Protocol: as §1, §2, §3

[8] = test system: Staphylococcus aureus FDA 209P; details: FDA209P, agar dilution, 35° C., 20 hours, read-out: minimum inhibitory concentration
Protocol: as §1, §2, §3

[9] = test system: Staphylococcus aureus Russell; details: agar dilution, 35° C., 20 hours, read-out: minimum inhibitory concentration
Protocol: as §1, §2, §3

[10] = test system: Staphylococcus aureus Smith; details: agar dilution, 35° C., 20 hours, read-out: minimum inhibitory concentration
Protocol: as §1, §2, §3

[11] = test system: Staphylococcus epidermidis; details: agar dilution, 35° C., 20 hours, read-out: minimum inhibitory concentration
Protocol: as §1, §2, §3

SMILES | MIC (Alcaligenes faecalis A 1) | MIC [1] | MIC [2] | MIC [3] | MIC [4] | MIC (Enterobacter cloacae 45) | MIC (Enterobacter sp. E8) | MIC (Escherichia coli K-12) | MIC (Escherichia coli RGN 823) | MIC [5] | MIC (Proteus mirabilis P6) | MIC (Proteus rettgeri P7) | MIC (Proteus sp. P22) | MIC (Proteus vulgaris GN76) | MIC (Providencia sp. P8) | MIC [6] | MIC [7] | MIC (Sarcina lutea) | MIC (Serratia marcescens S18) | MIC (Serratia marcescens T55) | other results
CC(C)C1C(=O)N2C(C(=O)O)=C(SC3CCCCC3)CC12 (stereo not drawn) | 6.25 µg/mL (≈ 20.2 µM) | 0.2 µg/mL (≈ 0.646 µM) | > 100 µg/mL | 0.007 µg/mL (≈ 0.0226 µM) | > 100 µg/mL | > 100 µg/mL | > 100 µg/mL | > 100 µg/mL | > 100 µg/mL | > 100 µg/mL | 100 µg/mL (≈ 323 µM) | > 100 µg/mL | 100 µg/mL (≈ 323 µM) | > 100 µg/mL | > 100 µg/mL | > 100 µg/mL | 50 µg/mL (≈ 162 µM) | 0.025 µg/mL (≈ 0.0808 µM) | > 100 µg/mL | > 100 µg/mL | MIC [8]: 0.025 µg/mL (≈ 0.0808 µM); MIC [9]: 0.025 µg/mL (≈ 0.0808 µM); MIC [10]: 0.05 µg/mL (≈ 0.162 µM); MIC [11]: 0.05 µg/mL (≈ 0.162 µM)
CC(O)[C@H]1C(=O)N2C(C(=O)O)=C(SC3CCCCC3)C[C@H]12 (stereo partly drawn) | 25 µg/mL (≈ 80.3 µM) | 6.25 µg/mL (≈ 20.1 µM) | > 100 µg/mL | 0.05 µg/mL (≈ 0.161 µM) | > 100 µg/mL | > 100 µg/mL | > 100 µg/mL | > 100 µg/mL | > 100 µg/mL | > 100 µg/mL | 100 µg/mL (≈ 321 µM) | > 100 µg/mL | > 100 µg/mL | > 100 µg/mL | > 100 µg/mL | > 100 µg/mL | 25 µg/mL (≈ 80.3 µM) | 0.05 µg/mL (≈ 0.161 µM) | > 100 µg/mL | > 100 µg/mL | MIC [8]: 0.05 µg/mL (≈ 0.161 µM); MIC [9]: 0.2 µg/mL (≈ 0.642 µM); MIC [10]: 0.39 µg/mL (≈ 1.25 µM); MIC [11]: 0.39 µg/mL (≈ 1.25 µM)

Compounds with a lower MIC (Alcaligenes faecalis A 1), results first:

MIC (Alcaligenes faecalis A 1) | MIC [1] | MIC [2] | MIC [3] | MIC [4] | MIC (Enterobacter cloacae 45) | MIC (Enterobacter sp. E8) | MIC (Escherichia coli K-12) | MIC (Escherichia coli RGN 823) | MIC [5] | MIC (Proteus mirabilis P6) | MIC (Proteus rettgeri P7) | MIC (Proteus sp. P22) | MIC (Proteus vulgaris GN76) | MIC (Providencia sp. P8) | MIC [6] | MIC [7] | MIC (Sarcina lutea) | MIC (Serratia marcescens S18) | MIC (Serratia marcescens T55) | SMILES | other results
1.56 µg/mL (≈ 5.01 µM) | 0.013 µg/mL (≈ 0.0417 µM) | 100 µg/mL (≈ 321 µM) | < 0.007 µg/mL | 50 µg/mL (≈ 161 µM) | 50 µg/mL (≈ 161 µM) | 12.5 µg/mL (≈ 40.1 µM) | 12.5 µg/mL (≈ 40.1 µM) | 100 µg/mL (≈ 321 µM) | > 100 µg/mL | 6.25 µg/mL (≈ 20.1 µM) | 100 µg/mL (≈ 321 µM) | > 100 µg/mL | > 100 µg/mL | 25 µg/mL (≈ 80.3 µM) | > 100 µg/mL | 50 µg/mL (≈ 161 µM) | < 0.007 µg/mL | > 100 µg/mL | > 100 µg/mL | CC(O)C1C(=O)N2C(C(=O)O)=C(SC3CCCCC3)CC12 (stereo not drawn) | MIC [8]: 0.013 µg/mL (≈ 0.0417 µM); MIC [9]: 0.013 µg/mL (≈ 0.0417 µM); MIC [10]: 0.05 µg/mL (≈ 0.161 µM); MIC [11]: 0.05 µg/mL (≈ 0.161 µM)
1.56 µg/mL (≈ 5.08 µM) | 0.39 µg/mL (≈ 1.27 µM) | 100 µg/mL (≈ 325 µM) | 0.05 µg/mL (≈ 0.163 µM) | 100 µg/mL (≈ 325 µM) | 50 µg/mL (≈ 163 µM) | 6.25 µg/mL (≈ 20.3 µM) | 1.56 µg/mL (≈ 5.08 µM) | 3.13 µg/mL (≈ 10.2 µM) | 25 µg/mL (≈ 81.3 µM) | 12.5 µg/mL (≈ 40.7 µM) | 12.5 µg/mL (≈ 40.7 µM) | 12.5 µg/mL (≈ 40.7 µM) | 12.5 µg/mL (≈ 40.7 µM) | 0.78 µg/mL (≈ 2.54 µM) | 12.5 µg/mL (≈ 40.7 µM) | 12.5 µg/mL (≈ 40.7 µM) | 0.2 µg/mL (≈ 0.651 µM) | 50 µg/mL (≈ 163 µM) | 100 µg/mL (≈ 325 µM) | CC(O)[C@H]1C(=O)N2C(C(=O)O)=C(Sc3ncccn3)C[C@H]12 (stereo partly drawn) [Example 63, 5,6-trans-3-(2-Pyrimidinylthio)-6-(1-hydroxyethyl)-7-oxo-1-azabicyclo[3.2.0]hept-2-ene-2-carboxylic acid] | MIC [8]: 0.2 µg/mL (≈ 0.651 µM); MIC [9]: 0.39 µg/mL (≈ 1.27 µM); MIC [10]: 0.39 µg/mL (≈ 1.27 µM); MIC [11]: 0.39 µg/mL (≈ 1.27 µM)
0.78 µg/mL (≈ 2.55 µM) | 0.78 µg/mL (≈ 2.55 µM) | 100 µg/mL (≈ 326 µM) | 0.2 µg/mL (≈ 0.653 µM) | > 100 µg/mL | 100 µg/mL (≈ 326 µM) | 25 µg/mL (≈ 81.6 µM) | 6.25 µg/mL (≈ 20.4 µM) | 12.5 µg/mL (≈ 40.8 µM) | 50 µg/mL (≈ 163 µM) | 12.5 µg/mL (≈ 40.8 µM) | 25 µg/mL (≈ 81.6 µM) | 12.5 µg/mL (≈ 40.8 µM) | 25 µg/mL (≈ 81.6 µM) | 3.13 µg/mL (≈ 10.2 µM) | 12.5 µg/mL (≈ 40.8 µM) | 25 µg/mL (≈ 81.6 µM) | 0.013 µg/mL (≈ 0.0424 µM) | 50 µg/mL (≈ 163 µM) | 100 µg/mL (≈ 326 µM) | CC(O)[C@H]1C(=O)N2C(C(=O)O)=C(Sc3ccccn3)C[C@H]12 (stereo partly drawn) | MIC [8]: 0.05 µg/mL (≈ 0.163 µM); MIC [9]: 0.39 µg/mL (≈ 1.27 µM); MIC [10]: 0.39 µg/mL (≈ 1.27 µM); MIC [11]: 1.56 µg/mL (≈ 5.09 µM)

— US4337199A, “Antibiotic β-lactam compounds, production thereof, and their use as antimicrobial agent” (Sanraku-Ocean Co., Ltd., priority 1978, dated 1982)
